Results on 3 compounds are retold here after patent US11497212B2, “Substituted thiophenyl uracils, salts thereof and the use thereof as herbicidal agents” (Syngenta Crop Protection AG, priority 2017, dated 2022).

Holding throughout (type): in vivo
One data set deals with Digitaria sanguinalis. In words: Herbicidal action post-emergence (greenhouse pot trial). The note with it: application rate 20 g/ha. An outline of the steps: (§1)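 Sowing in sandy loam, then 2–3 weeks of controlled greenhouse growth. Next, one-leaf-stage plants received a foliar spray of the WP- or EC-formulated compound with 0.5% additive (600 L/ha water, application rate of 80 g/ha or below). Finally, after about 3 weeks under optimal conditions, effect was judged by eye against controls.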

The subject of data set [1] is Veronica persica. The description is as above. The note with it: application rate 20 g/ha. The procedure, abridged:
as §1

Data set [2] has as its system Echinochloa crus-galli. Described as above. The note with it: application rate 20 g/ha, scored visually after about 3 weeks vs untreated controls. The procedure, abridged: as §1
Data set [3] concerns Stellaria media. The description is as above. The note with it: application rate 20 g/ha, scored visually after about 3 weeks vs untreated controls. The procedure, abridged:
as §1

The subject of data set [4] is Viola tricolor. Described as above. The procedure, abridged:
as §1

Data set [5] concerns Setaria viridis. The description is as above. The note with it: scored visually after about 3 weeks vs untreated controls. An outline of the steps:
as §1

In data set [6] the test system is Matricaria inodora. The data set is described as above. Particulars: scored visually after about 3 weeks vs untreated controls. An outline of the steps: as §1
Data set [7] concerns Abutilon theophrasti. The data set is described as above. Particulars: scored visually after about 3 weeks vs untreated controls. An outline of the steps:
as §1

The test system of the next data set is Polygonum convolvulus. Described as above. Particulars: scored visually after about 3 weeks vs untreated controls. The procedure, abridged:
as §1

Another data set concerns Hordeum murinum. The data set is described as above. The note with it: application rate 20 g/ha, scored visually after about 3 weeks vs untreated controls. The procedure, abridged:
as §1

For data set [8], the system named is Pharbitis purpurea. The data set is described as above. An outline of the steps:
as §1

Data set [9] relates to Amaranthus retroflexus. The data set is described as above. The note with it: application rate 20 g/ha, scored visually after about 3 weeks vs untreated controls. An outline of the steps:
as §1

For data set [10], the system named is Glycine max. In words: Crop compatibility post-emergence (greenhouse pot trial). The procedure, abridged:
(§2)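 Visual % rating about 3 weeks post-treatment against untreated plants (100% dead, 0% unaffected). Post-emergence spray of aqueous WP/EC preparations with 0.5% additive at 600 L/ha water, applied at one-leaf stage to greenhouse pot-grown crops in sandy loam.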

Data set [11] concerns Zea mays. In words: Crop compatibility pre-emergence (greenhouse pot trial). The note with it: application rate 80 g/ha, effect vs untreated controls. An excerpt: (§3) Seeds of mono- and dicotyledonous weeds and crop plants were laid out in plastic or organic plant pots and covered with soil. The compounds of the invention formulated in the form of wettable powders (WP) or emulsion concentrates (EC) were then applied to the surface of the covering soil as an aqueous suspension or emulsion with addition of 0.5% additive at a water application rate equivalent to 600 L/ha. After the treatment, the pots were placed in a greenhouse and kept under good growth conditions for the test plants. After about 3 weeks, the efficacy of the preparations was scored visually as a percentage by comparison with untreated controls. For example, 100% efficacy=plants have died, 0% efficacy=like control plants.
(§4) Crop compatibilities were also scored correspondingly.
(§5) The effects observed are reported here on selected crop plants by comparison with the untreated controls (values in %).

Data set [12] has as its system Glycine max. The data set is described as above. The note with it: application rate 80 g/ha, effect vs untreated controls.
Source text: as §3, §4, §5

A further data set deals with Oryza sativa. In words: Crop compatibility post-emergence (greenhouse pot trial). Particulars: application rate 20 g/ha. The procedure, abridged:
as §2

In data set [13] the test system is Zea mays. The description is as above. The procedure, abridged: as §2
In the next data set the test system is Triticum aestivum. The description is as above. An outline of the steps: as §2
In data set [14] the test system is Veronica persica. The experiment in a line: Herbicidal action pre-emergence (greenhouse pot trial). Particulars: application rate 320 g/ha.
Source text: as §3, with “control plants. Tables B1 to B16 below show the efficacies of selected compounds of the general formula (I) according to tables I.1 to I.60 on various harmful plants and an application rate corresponding to 320 g/ha or lower that were obtained by the aforementioned trial method.” for “control plants.”

The next data set relates to Lolium rigidum. Described as above. Particulars: application rate 320 g/ha.
Source text: as §3, with “control plants. Tables B1 to B16 below show the efficacies of selected compounds of the general formula (I) according to tables I.1 to I.60 on various harmful plants and an application rate corresponding to 320 g/ha or lower that were obtained by the aforementioned trial method.” for “control plants.”

For data set [15], the system named is Echinochloa crus-galli. The data set is described as above. Particulars: application rate 320 g/ha, scored after about 3 weeks.
Source text: as §3, with “control plants. Tables B1 to B16 below show the efficacies of selected compounds of the general formula (I) according to tables I.1 to I.60 on various harmful plants and an application rate corresponding to 320 g/ha or lower that were obtained by the aforementioned trial method.” for “control plants.”

For data set [16], the system named is Stellaria media. The data set is described as above. The note with it: application rate 320 g/ha, scored after about 3 weeks.
Source text: as §3, with “control plants. Tables B1 to B16 below show the efficacies of selected compounds of the general formula (I) according to tables I.1 to I.60 on various harmful plants and an application rate corresponding to 320 g/ha or lower that were obtained by the aforementioned trial method.” for “control plants.”

Data set [17] deals with Viola tricolor. The description is as above. The note with it: scored after about 3 weeks.
Source text: as §3, with “control plants. Tables B1 to B16 below show the efficacies of selected compounds of the general formula (I) according to tables I.1 to I.60 on various harmful plants and an application rate corresponding to 320 g/ha or lower that were obtained by the aforementioned trial method.” for “control plants.”

Data set [18] concerns Setaria viridis. The data set is described as above. The note with it: application rate 320 g/ha, scored after about 3 weeks.
Source text: as §3, with “control plants. Tables B1 to B16 below show the efficacies of selected compounds of the general formula (I) according to tables I.1 to I.60 on various harmful plants and an application rate corresponding to 320 g/ha or lower that were obtained by the aforementioned trial method.” for “control plants.”

Another data set relates to Avena fatua. The data set is described as above. Particulars: application rate 320 g/ha.
Source text: as §3, with “control plants. Tables B1 to B16 below show the efficacies of selected compounds of the general formula (I) according to tables I.1 to I.60 on various harmful plants and an application rate corresponding to 320 g/ha or lower that were obtained by the aforementioned trial method.” for “control plants.”

Data set [19] concerns Matricaria inodora. Described as above. The note with it: scored after about 3 weeks.
Source text: as §3, with “control plants. Tables B1 to B16 below show the efficacies of selected compounds of the general formula (I) according to tables I.1 to I.60 on various harmful plants and an application rate corresponding to 320 g/ha or lower that were obtained by the aforementioned trial method.” for “control plants.”

The next data set relates to Alopecurus myosuroides. Described as above. The note with it: application rate 320 g/ha, scored after about 3 weeks.
Source text: as §3, with “control plants. Tables B1 to B16 below show the efficacies of selected compounds of the general formula (I) according to tables I.1 to I.60 on various harmful plants and an application rate corresponding to 320 g/ha or lower that were obtained by the aforementioned trial method.” for “control plants.”

For data set [20], the system named is Abutilon theophrasti. The description is as above. The note with it: scored after about 3 weeks.
Source text: as §3, with “control plants. Tables B1 to B16 below show the efficacies of selected compounds of the general formula (I) according to tables I.1 to I.60 on various harmful plants and an application rate corresponding to 320 g/ha or lower that were obtained by the aforementioned trial method.” for “control plants.”

Data set [21] concerns Pharbitis purpurea. The description is as above. The note with it: application rate 320 g/ha.
Source text: as §3, with “control plants. Tables B1 to B16 below show the efficacies of selected compounds of the general formula (I) according to tables I.1 to I.60 on various harmful plants and an application rate corresponding to 320 g/ha or lower that were obtained by the aforementioned trial method.” for “control plants.”

Data set [22] concerns Amaranthus retroflexus. The description is as above. The note with it: scored after about 3 weeks.
Source text: as §3, with “control plants. Tables B1 to B16 below show the efficacies of selected compounds of the general formula (I) according to tables I.1 to I.60 on various harmful plants and an application rate corresponding to 320 g/ha or lower that were obtained by the aforementioned trial method.” for “control plants.”

Regarding `CC(C)CC(Sc1cc(-n2c(=O)cc(C(F)(F)F)n(C)c2=O)c(F)cc1Cl)C(=O)NCC1CCCO1` (centres unmarked) [I.4-221], in the data set on Digitaria sanguinalis, the “Digitaria sanguinalis (Efficacy in %)” value was 100%. Moreover, the “Veronica persica (Efficacy in %)” value with Veronica persica [1] came to 100%. Further, in the data set with Echinochloa crus-galli [2], the “Echinochloa crus-galli (Efficacy in %)” value was found to be 80%. Also, the “Stellaria media (Efficacy in %)” value in the data set on Stellaria media [3] amounted to 80%. Further, in the data set on Viola tricolor [4] (application rate 20 g/ha), the “Viola tricolor (Efficacy in %)” value is recorded as 100%. The “Setaria viridis (Efficacy in %)” value in the data set on Setaria viridis [5] (application rate 20 g/ha) is 100%. Moreover, the “Matricaria inodora (Efficacy in %)” value in the data set with Matricaria inodora [6] (application rate 20 g/ha) is reported as 100%. In the data set with Abutilon theophrasti [7] (application rate 20 g/ha), the “Abutilon theophrasti (Efficacy in %)” value stood at 100%. In addition, the “Polygonum convolvulus (Efficacy in %)” value with Polygonum convolvulus (application rate 20 g/ha) was found to be 100%. Besides, in the data set with Hordeum murinum, the “Hordeum murinum (Efficacy in %)” value worked out at 80%. Also, in the data set with Pharbitis purpurea [8] (application rate 20 g/ha), the “Pharbitis purpurea (Efficacy in %)” value is 100%. In addition, in the data set on Amaranthus retroflexus [9], the “Amaranthus retroflexus (Efficacy in %)” value stood at 100%. In addition, in the data set with Glycine max [10] (application rate 5 g/ha), the “Glycine max (Efficacy in %)” value amounted to 20%.
Turning to `CC(Sc1cc(-n2c(=O)cc(C(F)(F)F)n(C)c2=O)c(F)cc1Cl)C(=O)NC1(C#N)CCSC1` (centres unmarked) [I.1-340], the “Zea mays (Efficacy in %)” value with Zea mays [11] and in the data set with Zea mays [13] (application rate 80 g/ha) was 0% in each case. Besides, the “Glycine max (Efficacy in %)” value in the data set on Glycine max [12] and with Glycine max [10] (application rate 20 g/ha) was 20% throughout. The “Viola tricolor (Efficacy in %)” value in the data set on Viola tricolor [4] (application rate 80 g/ha) and with Viola tricolor [17] (application rate 320 g/ha) was 100% throughout. For the same compound, the “Setaria viridis (Efficacy in %)” value in the data set with Setaria viridis [5] (application rate 80 g/ha) came to 80%; with Setaria viridis [18] it was 100%. In addition, the “Matricaria inodora (Efficacy in %)” value with Matricaria inodora [6] (application rate 80 g/ha) and with Matricaria inodora [19] (application rate 320 g/ha) was 100% each time. The “Abutilon theophrasti (Efficacy in %)” value with Abutilon theophrasti [7] (application rate 80 g/ha) and in the data set with Abutilon theophrasti [20] (application rate 320 g/ha) was 100% throughout. Moreover, in the data set with Polygonum convolvulus (application rate 80 g/ha), the “Polygonum convolvulus (Efficacy in %)” value was found to be 100%. For the same compound, the “Pharbitis purpurea (Efficacy in %)” value in the data set with Pharbitis purpurea [8] (application rate 80 g/ha) and with Pharbitis purpurea [21] was 100% in each case. Also, the “Oryza sativa (Efficacy in %)” value with Oryza sativa is reported as 10%. In addition, the “Triticum aestivum (Efficacy in %)” value in the data set on Triticum aestivum (application rate 20 g/ha) came to 20%. For the same compound, the “Veronica persica (Efficacy in %)” value with Veronica persica [14] stood at 100%. In the data set with Lolium rigidum, the “Lolium rigidum (Efficacy in %)” value stood at 100%. Besides, the “Echinochloa crus-galli (Efficacy in %)” value with Echinochloa crus-galli [15] turned out to be 100%. The “Stellaria media (Efficacy in %)” value in the data set with Stellaria media [16] was determined as 100%. The “Avena fatua (Efficacy in %)” value with Avena fatua turned out to be 80%. For the same compound, the “Alopecurus myosuroides (Efficacy in %)” value with Alopecurus myosuroides is given as 90%. Also, in the data set on Amaranthus retroflexus [22] (application rate 320 g/ha), the “Amaranthus retroflexus (Efficacy in %)” value is reported as 100%.
On to `CC(Sc1cc(-n2c(=O)cc(C(F)(F)F)n(C)c2=O)c(F)cc1Cl)C(=O)NCC1CCOC1(C)C` (centres unmarked) [I.1-227], for which the “Zea mays (Efficacy in %)” value is 0% in the data set on Zea mays [11] and 20% in the data set with Zea mays [13] (application rate 20 g/ha). The “Veronica persica (Efficacy in %)” value in the data set on Veronica persica [1] stood at 100%. Also, the “Viola tricolor (Efficacy in %)” value with Viola tricolor [4] (application rate 20 g/ha) and in the data set with Viola tricolor [17] (application rate 80 g/ha) was 80% each time. The entries for the “Matricaria inodora (Efficacy in %)” value in the data set with Matricaria inodora [6] (application rate 20 g/ha) and in the data set on Matricaria inodora [19] (application rate 80 g/ha) were 100% and 90%, respectively. The “Abutilon theophrasti (Efficacy in %)” value with Abutilon theophrasti [7] (application rate 20 g/ha) and in the data set with Abutilon theophrasti [20] (application rate 80 g/ha) was 100% each time. Further, the “Polygonum convolvulus (Efficacy in %)” value with Polygonum convolvulus (application rate 20 g/ha) is 100%. In addition, in the data set with Pharbitis purpurea [8] (application rate 20 g/ha), the “Pharbitis purpurea (Efficacy in %)” value turned out to be 100%. Further, the “Amaranthus retroflexus (Efficacy in %)” value in the data set with Amaranthus retroflexus [9] and with Amaranthus retroflexus [22] (application rate 80 g/ha) was 100% in each case. Moreover, the “Oryza sativa (Efficacy in %)” value in the data set on Oryza sativa is listed as 0%. For the same compound, the “Glycine max (Efficacy in %)” value in the data set on Glycine max [10] (application rate 5 g/ha) came to 20%. Also, the “Triticum aestivum (Efficacy in %)” value with Triticum aestivum (application rate 5 g/ha) worked out at 10%.
